Assay results taken from patent publication US9278902B2, “Crystal form of prostaglandin analogue, and preparation method and use thereof” (Shanghai Techwell Biopharmaceutical Co., Ltd., priority 2012, dated 2016).

Tests used:
[1] = Storage stability of crystalline form B by HPLC (0° C., 20° C., 40° C.); format: physicochemical
Protocol: (§1) Column: 4.6×250 mm 5 μm C18 column; flow rate: 2 ml/min; injection volume: 10 μl; column temperature: 35° C.; detection wavelength: 217 nm; mobile phase: acetonitrile/water/trifluoroacetic acid; Elution condition: water (60%): acetonitrile (40%): trifluoroacetic acid (0.1%); detection limit: 10 ng.
(§2) Compound I from example 2, example 3 and example 4 were obtained, and subjected to stability test at 40° C., respectively. […] Therefore, crystalline form B of compound I prepared by the method of the present invention has unique stability.

[2] = cited from earlier work
[3] = Stability test at 40° C., HPLC purity; format: physicochemical
Protocol: As used herein, “HPLC purity” refers to the percentage of the peak area of compound I obtained by area normalization method in the sum of all the peak area in HPLC detection applied to compound I, according to the obtained chromatogram.
as §1
The purity mentioned in the following Examples is HPLC purity.
as §2

For `CCCCC[C@H](O)CC[C@@H]1[C@H]2Cc3cccc(OCC(=O)O)c3C[C@H]2C[C@H]1O` [crystalline form B of compound I], the “Degradation on storage (HPLC)” value ([1]; stored at 0° C. for 12 months) was “did not degrade at all”, the “Degradation on storage (HPLC)” value ([1]; stored at 20° C. for 6 months) was “did not degrade at all” and the “Degradation on storage (HPLC)” value ([1]; stored at 40° C. for 2 months) was “did not degrade at all”.

In the case of `CCCCC[C@H](O)CC[C@@H]1[C@H]2Cc3cccc(OCC(=O)O)c3C[C@H]2C[C@H]1O` [Treprostinil], the “Stability under physiological conditions” value [2] is listed as “stable”.

With `CCCCC[C@H](O)CC[C@@H]1[C@H]2Cc3cccc(OCC(=O)O)c3C[C@H]2C[C@H]1O` [Example 4] the “Purity at 0 day (40° C.)” value ([3]; stability test at 40° C., 0 day (start)) was 99.90%, the “Purity at 10 day (40° C.)” value ([3]; stored at 40° C., 10 day) was 99.91% and the “Purity at 30 day (40° C.)” value ([3]; stored at 40° C., 30 day) was 99.89%. The “Purity at 90 day (40° C.)” value ([3]; stored at 40° C., 90 day) was 99.88%.
